Measurements from ChEMBL document CHEMBL2074018, “Digoxin up-regulates multidrug resistance transporter (MDR1) mRNA and simultaneously down-regulates steroid xenobiotic receptor mRNA” (Biochem Biophys Res Commun, 2003).

Target: ATP-dependent translocase ABCB1 (Homo sapiens, UniProt P08183)
Assay: TP_TRANSPORTER: up-regulation of MDR1 mRNA in Caco-2 cells
Assay type: functional, cell-based

Sequence of ATP-dependent translocase ABCB1 (P08183 whole entry): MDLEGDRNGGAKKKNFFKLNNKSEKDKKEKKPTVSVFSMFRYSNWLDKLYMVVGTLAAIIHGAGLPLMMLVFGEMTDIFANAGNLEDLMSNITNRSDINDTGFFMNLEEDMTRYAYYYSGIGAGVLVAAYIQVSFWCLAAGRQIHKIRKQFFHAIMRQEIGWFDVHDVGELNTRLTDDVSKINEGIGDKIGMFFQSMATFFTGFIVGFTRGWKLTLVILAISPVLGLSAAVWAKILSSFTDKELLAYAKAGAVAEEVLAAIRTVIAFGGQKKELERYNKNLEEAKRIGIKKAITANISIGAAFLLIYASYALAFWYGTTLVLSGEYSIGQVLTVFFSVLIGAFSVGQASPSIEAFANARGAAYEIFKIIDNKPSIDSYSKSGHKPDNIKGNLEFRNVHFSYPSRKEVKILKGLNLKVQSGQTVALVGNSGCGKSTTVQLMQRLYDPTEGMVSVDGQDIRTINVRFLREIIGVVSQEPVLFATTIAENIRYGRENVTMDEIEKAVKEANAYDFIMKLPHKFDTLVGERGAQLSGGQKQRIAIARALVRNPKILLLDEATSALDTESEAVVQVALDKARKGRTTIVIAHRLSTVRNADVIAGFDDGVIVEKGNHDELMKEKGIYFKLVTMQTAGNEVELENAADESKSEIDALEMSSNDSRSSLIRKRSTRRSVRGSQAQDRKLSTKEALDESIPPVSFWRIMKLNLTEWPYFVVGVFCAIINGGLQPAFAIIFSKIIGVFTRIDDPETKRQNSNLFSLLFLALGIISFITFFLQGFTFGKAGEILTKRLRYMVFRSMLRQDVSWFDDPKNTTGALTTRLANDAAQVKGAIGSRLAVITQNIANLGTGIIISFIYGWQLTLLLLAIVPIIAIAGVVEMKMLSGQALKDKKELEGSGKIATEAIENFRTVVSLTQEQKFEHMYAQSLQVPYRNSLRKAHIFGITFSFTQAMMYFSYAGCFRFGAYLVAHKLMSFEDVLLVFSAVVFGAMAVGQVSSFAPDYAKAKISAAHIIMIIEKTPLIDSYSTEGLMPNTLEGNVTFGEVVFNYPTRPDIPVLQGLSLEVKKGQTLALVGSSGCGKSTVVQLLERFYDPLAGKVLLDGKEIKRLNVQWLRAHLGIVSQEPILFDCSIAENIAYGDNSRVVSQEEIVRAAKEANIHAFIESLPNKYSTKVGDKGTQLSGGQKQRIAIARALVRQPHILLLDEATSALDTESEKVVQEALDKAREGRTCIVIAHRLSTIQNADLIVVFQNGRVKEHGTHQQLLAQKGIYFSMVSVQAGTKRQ

## C[C@H]1O[C@@H](O[C@H]2[C@@H](O)C[C@H](O[C@H]3[C@@H](O)C[C@H](O[C@H]4CC[C@@]5(C)[C@H](CC[C@@H]6[C@@H]5C[C@@H](O)[C@]5(C)[C@@H](C7=CC(=O)OC7)CC[C@]65O)C4)O[C@@H]3C)O[C@@H]2C)C[C@H](O)[C@@H]1O [DIGOXIN]
  Activity: inducer [+]
